Columns and labels:
Test in all cases: biochemical
Parameters in all cases: KINOMEscan competition binding panel, per cent of control
Settings in all cases: read-out: %Ctrl @ 2800nM
TGFBR1 = TGFBR1 (Homo sapiens, UniProt P36897)
Outline: (§1)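 Values are expressed as percent of control, calculated as ((test − positive control)/(negative control − positive control)) × 100, so lower numbers mean stronger hits. Binding was measured by KINOMEscan competition assay in a 450-kinase human panel including disease mutants, using the contractor's validated protocol.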

MST2 = target: T1, MST2 (Homo sapiens, UniProt Q13188)
T1 construct: gene STK3
Outline: as §1

ROCK2 = ROCK2 (Homo sapiens, UniProt O75116)
Outline: as §1

PIK3CB = PIK3CB (Homo sapiens, UniProt P42338)
Outline: as §1

PKMYT1 = PKMYT1 (Homo sapiens, UniProt Q99640)
Outline: as §1

KIT(V559D,T670I) = KIT(V559D,T670I) (Homo sapiens, UniProt P10721, T670I/V559D)
Outline: as §1

ERN1 = ERN1 (Homo sapiens, UniProt O75460)
Outline: as §1

DRAK1 = target: T2, DRAK1 (Homo sapiens, UniProt Q9UEE5)
T2 construct: gene STK17A
Outline: as §1

DAPK1 = DAPK1 (Homo sapiens, UniProt P53355)
Outline: as §1

GRK2 = GRK2 (Homo sapiens, UniProt P25098)
Outline: as §1

SIK2 = SIK2 (Homo sapiens, UniProt Q9H0K1)
Outline: as §1

GRK7 = GRK7 (Homo sapiens, UniProt Q8WTQ7)
Outline: as §1

SLK = SLK (Homo sapiens, UniProt Q9H2G2)
Outline: as §1

HPK1 = target: T3, HPK1 (Homo sapiens, UniProt Q92918)
T3 construct: gene MAP4K1
Outline: as §1

LATS1 = LATS1 (Homo sapiens, UniProt O95835)
Outline: as §1

FER = FER (Homo sapiens, UniProt P16591)
Outline: as §1

BRSK1 = BRSK1 (Homo sapiens, UniProt Q8TDC3)
Outline: as §1

PKAC-beta = target: T4, PKAC-beta (Homo sapiens, UniProt P22694)
T4 construct: gene PRKACB
Outline: as §1

ITK = ITK (Homo sapiens, UniProt Q08881)
Outline: as §1

NIK = target: T5, NIK (Homo sapiens, UniProt Q99558)
T5 construct: gene MAP3K14
Outline: as §1

DCAMKL2 = target: T6, DCAMKL2 (Homo sapiens, UniProt Q8N568)
T6 construct: gene DCLK2
Outline: as §1

MYLK = MYLK (Homo sapiens, UniProt Q15746)
Outline: as §1

ERK4 = target: T7, ERK4 (Homo sapiens, UniProt P31152)
T7 construct: gene MAPK4
Outline: as §1

GRK3 = GRK3 (Homo sapiens, UniProt P35626)
Outline: as §1

PIK3CA(M1043I) = PIK3CA(M1043I) (Homo sapiens, UniProt P42336, M1043I)
Outline: as §1

PRKD3 = PRKD3 (Homo sapiens, UniProt O94806)
Outline: as §1

Chain of ROCK2 (O75116 whole entry): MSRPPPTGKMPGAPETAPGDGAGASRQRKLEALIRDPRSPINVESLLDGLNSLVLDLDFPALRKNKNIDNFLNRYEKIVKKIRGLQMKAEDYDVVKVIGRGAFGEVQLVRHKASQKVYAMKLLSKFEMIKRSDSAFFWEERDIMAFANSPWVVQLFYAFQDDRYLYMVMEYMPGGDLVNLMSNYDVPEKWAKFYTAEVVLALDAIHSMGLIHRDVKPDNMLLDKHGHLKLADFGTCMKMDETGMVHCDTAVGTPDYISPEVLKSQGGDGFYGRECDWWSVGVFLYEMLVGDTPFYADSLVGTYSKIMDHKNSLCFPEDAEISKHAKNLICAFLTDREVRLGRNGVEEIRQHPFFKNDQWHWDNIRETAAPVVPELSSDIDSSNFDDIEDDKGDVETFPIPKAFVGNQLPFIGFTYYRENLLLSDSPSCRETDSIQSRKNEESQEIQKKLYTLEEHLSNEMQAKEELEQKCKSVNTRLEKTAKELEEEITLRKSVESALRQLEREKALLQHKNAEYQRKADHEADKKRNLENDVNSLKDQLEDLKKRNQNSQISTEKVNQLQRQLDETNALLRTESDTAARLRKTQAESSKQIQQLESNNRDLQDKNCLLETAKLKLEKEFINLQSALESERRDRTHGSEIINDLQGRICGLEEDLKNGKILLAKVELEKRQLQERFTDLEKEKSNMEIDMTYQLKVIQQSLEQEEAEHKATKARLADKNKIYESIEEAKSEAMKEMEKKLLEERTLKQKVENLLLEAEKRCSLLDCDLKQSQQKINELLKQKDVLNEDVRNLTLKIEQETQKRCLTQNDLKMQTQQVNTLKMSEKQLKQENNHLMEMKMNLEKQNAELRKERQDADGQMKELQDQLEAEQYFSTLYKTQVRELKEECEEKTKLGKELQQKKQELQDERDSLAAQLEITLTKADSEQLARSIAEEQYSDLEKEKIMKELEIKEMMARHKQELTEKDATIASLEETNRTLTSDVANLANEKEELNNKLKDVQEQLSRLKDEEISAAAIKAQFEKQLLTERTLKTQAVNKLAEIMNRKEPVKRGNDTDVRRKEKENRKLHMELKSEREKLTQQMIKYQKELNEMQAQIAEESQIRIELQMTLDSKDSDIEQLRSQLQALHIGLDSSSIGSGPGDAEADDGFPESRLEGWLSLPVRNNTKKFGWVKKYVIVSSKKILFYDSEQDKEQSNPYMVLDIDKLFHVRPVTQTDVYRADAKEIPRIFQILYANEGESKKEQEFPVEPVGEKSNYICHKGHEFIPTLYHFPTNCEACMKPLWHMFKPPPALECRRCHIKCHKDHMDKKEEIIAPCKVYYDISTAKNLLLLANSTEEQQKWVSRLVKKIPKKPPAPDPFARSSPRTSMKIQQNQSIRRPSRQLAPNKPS
Chain of TGFBR1 (P36897 whole entry): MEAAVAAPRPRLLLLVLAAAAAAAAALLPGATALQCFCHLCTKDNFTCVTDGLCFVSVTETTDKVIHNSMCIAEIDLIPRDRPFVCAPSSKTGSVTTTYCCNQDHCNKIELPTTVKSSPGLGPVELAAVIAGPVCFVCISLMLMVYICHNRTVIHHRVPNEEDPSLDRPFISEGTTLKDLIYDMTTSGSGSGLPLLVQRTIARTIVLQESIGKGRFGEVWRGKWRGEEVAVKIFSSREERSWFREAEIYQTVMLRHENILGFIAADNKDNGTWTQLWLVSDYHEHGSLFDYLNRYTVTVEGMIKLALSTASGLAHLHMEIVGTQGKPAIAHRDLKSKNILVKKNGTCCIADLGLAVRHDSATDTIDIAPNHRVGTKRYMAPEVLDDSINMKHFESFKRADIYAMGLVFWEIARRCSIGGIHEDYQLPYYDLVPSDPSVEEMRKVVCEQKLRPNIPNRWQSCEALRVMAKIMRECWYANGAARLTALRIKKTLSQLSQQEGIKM
Chain of ITK (Q08881 whole entry): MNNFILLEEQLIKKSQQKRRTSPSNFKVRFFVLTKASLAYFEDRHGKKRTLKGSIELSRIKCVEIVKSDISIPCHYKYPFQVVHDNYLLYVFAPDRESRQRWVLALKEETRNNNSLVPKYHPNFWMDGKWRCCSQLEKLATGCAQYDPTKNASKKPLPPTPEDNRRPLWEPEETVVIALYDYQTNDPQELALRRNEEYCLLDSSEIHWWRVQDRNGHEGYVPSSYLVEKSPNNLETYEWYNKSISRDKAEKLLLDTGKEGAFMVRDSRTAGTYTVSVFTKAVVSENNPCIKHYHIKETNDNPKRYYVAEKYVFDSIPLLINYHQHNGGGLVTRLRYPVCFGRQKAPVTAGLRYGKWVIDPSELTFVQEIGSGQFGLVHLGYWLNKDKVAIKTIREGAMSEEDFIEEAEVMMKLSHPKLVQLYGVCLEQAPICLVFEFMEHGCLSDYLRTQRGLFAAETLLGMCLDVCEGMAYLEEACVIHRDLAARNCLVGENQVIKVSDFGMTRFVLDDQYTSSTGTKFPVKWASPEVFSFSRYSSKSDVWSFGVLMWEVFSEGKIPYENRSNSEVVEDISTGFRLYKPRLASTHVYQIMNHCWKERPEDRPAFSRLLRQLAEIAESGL
T5 sequence (Q99558 whole entry): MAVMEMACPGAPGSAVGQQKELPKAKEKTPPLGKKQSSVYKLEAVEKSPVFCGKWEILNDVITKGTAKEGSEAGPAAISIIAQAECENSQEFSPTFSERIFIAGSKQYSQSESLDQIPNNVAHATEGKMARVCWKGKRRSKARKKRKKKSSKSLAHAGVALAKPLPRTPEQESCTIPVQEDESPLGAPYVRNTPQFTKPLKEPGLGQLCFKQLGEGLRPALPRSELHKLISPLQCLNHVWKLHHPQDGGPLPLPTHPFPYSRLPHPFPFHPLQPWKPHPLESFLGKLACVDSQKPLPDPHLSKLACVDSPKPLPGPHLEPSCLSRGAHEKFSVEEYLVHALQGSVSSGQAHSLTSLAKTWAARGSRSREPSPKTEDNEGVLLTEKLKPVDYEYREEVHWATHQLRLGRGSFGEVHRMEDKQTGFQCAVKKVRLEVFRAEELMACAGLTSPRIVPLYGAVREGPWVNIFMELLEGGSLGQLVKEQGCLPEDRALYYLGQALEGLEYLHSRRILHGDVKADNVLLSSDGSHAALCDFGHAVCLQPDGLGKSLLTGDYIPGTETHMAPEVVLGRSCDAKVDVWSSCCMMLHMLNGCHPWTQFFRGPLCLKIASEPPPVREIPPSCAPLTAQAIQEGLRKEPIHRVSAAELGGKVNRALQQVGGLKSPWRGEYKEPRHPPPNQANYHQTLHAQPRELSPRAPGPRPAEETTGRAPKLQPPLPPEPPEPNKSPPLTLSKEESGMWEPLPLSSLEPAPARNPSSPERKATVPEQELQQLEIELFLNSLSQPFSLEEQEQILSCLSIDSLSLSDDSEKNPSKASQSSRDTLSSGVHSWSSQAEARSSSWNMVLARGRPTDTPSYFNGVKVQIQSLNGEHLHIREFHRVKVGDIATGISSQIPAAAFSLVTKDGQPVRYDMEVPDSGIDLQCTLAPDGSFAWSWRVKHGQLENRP
Chain of SLK (Q9H2G2 whole entry): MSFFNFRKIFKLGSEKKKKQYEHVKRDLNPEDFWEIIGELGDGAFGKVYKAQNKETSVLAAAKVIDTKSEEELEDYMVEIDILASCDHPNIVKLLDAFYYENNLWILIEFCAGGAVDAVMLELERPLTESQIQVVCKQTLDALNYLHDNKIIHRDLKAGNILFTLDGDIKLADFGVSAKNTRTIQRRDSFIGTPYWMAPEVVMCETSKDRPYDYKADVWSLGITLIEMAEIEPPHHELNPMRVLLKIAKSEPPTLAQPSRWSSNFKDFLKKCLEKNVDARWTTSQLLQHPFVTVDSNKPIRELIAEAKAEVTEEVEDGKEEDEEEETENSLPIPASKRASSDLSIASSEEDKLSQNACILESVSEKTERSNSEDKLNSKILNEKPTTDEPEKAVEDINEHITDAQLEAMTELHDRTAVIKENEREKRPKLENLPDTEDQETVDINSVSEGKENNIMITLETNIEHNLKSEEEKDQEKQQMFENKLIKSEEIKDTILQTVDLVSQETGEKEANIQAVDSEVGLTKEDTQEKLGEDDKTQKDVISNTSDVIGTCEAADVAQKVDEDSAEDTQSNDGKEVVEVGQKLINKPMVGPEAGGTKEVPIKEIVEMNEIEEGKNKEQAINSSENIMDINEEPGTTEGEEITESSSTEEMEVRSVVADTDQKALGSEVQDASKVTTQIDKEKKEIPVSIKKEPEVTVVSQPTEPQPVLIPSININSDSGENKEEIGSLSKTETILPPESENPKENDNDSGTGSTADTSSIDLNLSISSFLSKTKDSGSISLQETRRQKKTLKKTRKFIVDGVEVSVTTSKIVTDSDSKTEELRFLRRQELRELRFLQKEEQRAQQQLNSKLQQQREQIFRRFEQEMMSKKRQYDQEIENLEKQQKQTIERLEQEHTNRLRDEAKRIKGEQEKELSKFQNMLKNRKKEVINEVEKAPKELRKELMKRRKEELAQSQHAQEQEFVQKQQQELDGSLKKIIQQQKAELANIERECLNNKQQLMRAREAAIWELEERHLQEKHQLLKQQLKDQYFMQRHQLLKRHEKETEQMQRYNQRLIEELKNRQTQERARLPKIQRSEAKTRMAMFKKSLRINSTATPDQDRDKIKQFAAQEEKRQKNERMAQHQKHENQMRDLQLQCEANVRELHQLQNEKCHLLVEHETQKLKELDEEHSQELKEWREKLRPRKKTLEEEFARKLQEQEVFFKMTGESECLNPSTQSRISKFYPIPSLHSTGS

[O-][S@@+](Cc1cncs1)C(c1ccccc1)c1ccccc1 [S-CE-123, (S)-5-((Benzhydrylsulfinyl)Methyl)Thiazole] gave a remaining binding at 2.8 µM (TGFBR1) of 86%, a remaining binding at 2.8 µM (MST2) of 80% and a remaining binding at 2.8 µM (ROCK2) of 100%. The remaining binding at 2.8 µM (PIK3CB) was 93%, the remaining binding at 2.8 µM (PKMYT1) was 88% and the remaining binding at 2.8 µM (KIT(V559D,T670I)) was 83%. For the same compound, the remaining binding at 2.8 µM (ERN1) was 86%, the remaining binding at 2.8 µM (DRAK1) was 95% and the remaining binding at 2.8 µM (DAPK1) was 91%. For the same compound, the remaining binding at 2.8 µM (GRK2) was 100%, the remaining binding at 2.8 µM (SIK2) was 100% and the remaining binding at 2.8 µM (GRK7) was 90%. It also gave a remaining binding at 2.8 µM (SLK) of 100%, a remaining binding at 2.8 µM (HPK1) of 89% and a remaining binding at 2.8 µM (LATS1) of 93%. The remaining binding at 2.8 µM (FER) was 100%, the remaining binding at 2.8 µM (BRSK1) was 100% and the remaining binding at 2.8 µM (PKAC-beta) was 100%. For the same compound, the remaining binding at 2.8 µM (ITK) was 100%, the remaining binding at 2.8 µM (NIK) was 100% and the remaining binding at 2.8 µM (DCAMKL2) was 97%. The remaining binding at 2.8 µM (MYLK) was 96%, the remaining binding at 2.8 µM (ERK4) was 100% and the remaining binding at 2.8 µM (GRK3) was 100%. For the same compound, the remaining binding at 2.8 µM (PIK3CA(M1043I)) was 63% and the remaining binding at 2.8 µM (PRKD3) was 96%.
